The target of experiment [1] is T1, Alpha-1A adrenergic receptor (Homo sapiens, UniProt P35348).
T1 sequence (P35348 whole entry): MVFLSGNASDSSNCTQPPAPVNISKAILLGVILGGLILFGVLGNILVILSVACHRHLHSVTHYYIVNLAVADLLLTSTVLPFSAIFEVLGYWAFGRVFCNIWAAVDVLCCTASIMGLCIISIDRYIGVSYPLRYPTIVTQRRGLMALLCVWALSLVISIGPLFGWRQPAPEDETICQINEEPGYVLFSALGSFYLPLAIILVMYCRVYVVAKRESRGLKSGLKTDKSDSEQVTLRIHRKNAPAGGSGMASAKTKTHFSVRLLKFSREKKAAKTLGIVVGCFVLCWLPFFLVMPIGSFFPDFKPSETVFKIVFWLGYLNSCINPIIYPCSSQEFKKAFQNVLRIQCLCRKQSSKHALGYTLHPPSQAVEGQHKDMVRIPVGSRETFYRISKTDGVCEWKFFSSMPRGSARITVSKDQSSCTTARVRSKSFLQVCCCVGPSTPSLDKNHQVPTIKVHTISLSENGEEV

Experiment [2] concerns the target T2, Alpha-2B adrenergic receptor (Homo sapiens, UniProt P18089).
T2 sequence (P18089 whole entry): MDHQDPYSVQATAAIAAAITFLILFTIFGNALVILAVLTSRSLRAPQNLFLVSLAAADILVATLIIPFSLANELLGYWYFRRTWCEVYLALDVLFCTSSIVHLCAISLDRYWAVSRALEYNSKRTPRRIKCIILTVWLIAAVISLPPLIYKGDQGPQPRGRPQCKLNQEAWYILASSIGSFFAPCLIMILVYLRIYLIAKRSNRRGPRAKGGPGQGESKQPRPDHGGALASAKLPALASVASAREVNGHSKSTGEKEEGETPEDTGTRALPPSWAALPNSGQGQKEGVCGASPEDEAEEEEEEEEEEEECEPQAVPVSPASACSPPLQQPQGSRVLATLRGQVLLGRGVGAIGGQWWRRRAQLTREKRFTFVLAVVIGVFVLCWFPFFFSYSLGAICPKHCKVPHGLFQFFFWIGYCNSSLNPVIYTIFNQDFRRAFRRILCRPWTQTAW

In experiment [3] the target is Beta-2 adrenergic receptor (Homo sapiens, UniProt P07550). The class given is functional, cell-based.
Experiment [4] addresses T3, Muscarinic acetylcholine receptor M1 (Homo sapiens, UniProt P11229).
T3 sequence (P11229 whole entry): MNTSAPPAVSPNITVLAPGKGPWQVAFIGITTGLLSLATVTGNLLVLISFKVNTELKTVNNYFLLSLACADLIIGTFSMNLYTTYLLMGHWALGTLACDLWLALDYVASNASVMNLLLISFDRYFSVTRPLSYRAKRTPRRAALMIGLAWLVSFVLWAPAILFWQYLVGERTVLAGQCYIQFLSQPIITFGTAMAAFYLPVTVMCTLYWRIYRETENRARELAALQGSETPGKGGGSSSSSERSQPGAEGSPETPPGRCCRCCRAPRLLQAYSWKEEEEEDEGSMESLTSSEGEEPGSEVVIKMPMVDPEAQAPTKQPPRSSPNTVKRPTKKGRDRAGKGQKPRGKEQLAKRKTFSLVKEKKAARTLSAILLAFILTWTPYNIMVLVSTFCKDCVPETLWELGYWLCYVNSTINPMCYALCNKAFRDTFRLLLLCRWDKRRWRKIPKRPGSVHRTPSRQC
The class given is functional.

In experiment [5] the target is Muscarinic acetylcholine receptor M3 (Homo sapiens, UniProt P20309).
The next experiment deals with Cannabinoid receptor 1 (Homo sapiens, UniProt P21554). The class given is functional, cell-based.
The target of another experiment is Histamine H1 receptor (Homo sapiens, UniProt P35367).
In experiment [6] the target is T4, 5-hydroxytryptamine receptor 1A (Homo sapiens, UniProt P08908).
T4 sequence (P08908 whole entry): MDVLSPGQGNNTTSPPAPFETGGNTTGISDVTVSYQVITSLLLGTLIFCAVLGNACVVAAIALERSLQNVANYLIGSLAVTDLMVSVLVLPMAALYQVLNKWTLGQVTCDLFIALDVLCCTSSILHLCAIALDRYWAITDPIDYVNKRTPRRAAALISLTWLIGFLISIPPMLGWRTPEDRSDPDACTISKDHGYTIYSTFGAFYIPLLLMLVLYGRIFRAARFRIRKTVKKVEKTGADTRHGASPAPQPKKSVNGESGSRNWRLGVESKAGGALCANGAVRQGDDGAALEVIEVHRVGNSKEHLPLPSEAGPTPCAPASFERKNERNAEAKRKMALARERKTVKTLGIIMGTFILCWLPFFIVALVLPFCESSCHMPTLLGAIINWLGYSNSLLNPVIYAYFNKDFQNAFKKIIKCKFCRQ
It is filed as functional, cell-based.

Another experiment deals with Melanocortin receptor 4 (Homo sapiens, UniProt P32245).
For experiment [7], the target named is T5, Mu-type opioid receptor (Homo sapiens, UniProt P35372).
The target of experiment [8] is T1, Alpha-1A adrenergic receptor. It is filed as functional, cell-based.
Experiment [9] addresses T5, Mu-type opioid receptor. The experiment is described as follows: biochemical. It is filed as functional.
Further: assay procedure not described here.

Chain of Melanocortin receptor 4 (P32245 whole entry): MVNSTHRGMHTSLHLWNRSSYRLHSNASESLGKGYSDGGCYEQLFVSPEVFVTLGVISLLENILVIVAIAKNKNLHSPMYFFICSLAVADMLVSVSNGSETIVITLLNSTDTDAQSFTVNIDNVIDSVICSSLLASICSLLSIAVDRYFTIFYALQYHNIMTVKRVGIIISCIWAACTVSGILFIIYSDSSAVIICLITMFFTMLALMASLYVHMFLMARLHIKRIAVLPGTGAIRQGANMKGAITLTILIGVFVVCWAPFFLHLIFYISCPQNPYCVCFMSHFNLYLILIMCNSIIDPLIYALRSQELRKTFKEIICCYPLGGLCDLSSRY
Chain of Muscarinic acetylcholine receptor M3 (P20309 whole entry): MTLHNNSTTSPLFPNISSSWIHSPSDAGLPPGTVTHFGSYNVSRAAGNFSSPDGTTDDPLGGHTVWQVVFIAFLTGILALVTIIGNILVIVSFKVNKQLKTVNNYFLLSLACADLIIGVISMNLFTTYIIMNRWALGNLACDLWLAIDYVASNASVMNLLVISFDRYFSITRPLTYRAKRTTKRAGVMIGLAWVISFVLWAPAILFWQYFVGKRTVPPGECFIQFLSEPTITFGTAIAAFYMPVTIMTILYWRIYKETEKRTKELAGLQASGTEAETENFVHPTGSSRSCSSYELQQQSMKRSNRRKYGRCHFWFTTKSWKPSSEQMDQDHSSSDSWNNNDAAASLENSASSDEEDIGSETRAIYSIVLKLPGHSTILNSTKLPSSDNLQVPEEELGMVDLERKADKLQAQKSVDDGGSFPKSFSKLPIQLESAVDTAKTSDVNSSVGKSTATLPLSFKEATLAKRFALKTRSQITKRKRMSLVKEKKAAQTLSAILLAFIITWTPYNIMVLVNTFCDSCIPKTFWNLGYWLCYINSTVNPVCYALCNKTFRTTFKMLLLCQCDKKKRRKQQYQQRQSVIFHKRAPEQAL
Chain of Histamine H1 receptor (P35367 whole entry): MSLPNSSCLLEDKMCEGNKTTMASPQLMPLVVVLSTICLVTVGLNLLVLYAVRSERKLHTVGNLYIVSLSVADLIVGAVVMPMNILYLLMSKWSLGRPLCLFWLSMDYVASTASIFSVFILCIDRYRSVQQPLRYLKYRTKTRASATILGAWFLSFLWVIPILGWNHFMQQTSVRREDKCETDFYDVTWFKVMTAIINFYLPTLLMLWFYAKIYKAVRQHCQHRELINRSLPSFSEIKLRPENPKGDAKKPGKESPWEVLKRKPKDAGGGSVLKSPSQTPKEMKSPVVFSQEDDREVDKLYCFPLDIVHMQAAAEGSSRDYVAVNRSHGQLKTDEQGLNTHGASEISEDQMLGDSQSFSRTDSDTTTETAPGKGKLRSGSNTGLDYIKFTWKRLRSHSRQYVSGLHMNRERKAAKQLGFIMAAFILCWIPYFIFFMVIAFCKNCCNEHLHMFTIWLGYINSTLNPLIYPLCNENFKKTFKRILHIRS
T5 sequence (P35372 whole entry): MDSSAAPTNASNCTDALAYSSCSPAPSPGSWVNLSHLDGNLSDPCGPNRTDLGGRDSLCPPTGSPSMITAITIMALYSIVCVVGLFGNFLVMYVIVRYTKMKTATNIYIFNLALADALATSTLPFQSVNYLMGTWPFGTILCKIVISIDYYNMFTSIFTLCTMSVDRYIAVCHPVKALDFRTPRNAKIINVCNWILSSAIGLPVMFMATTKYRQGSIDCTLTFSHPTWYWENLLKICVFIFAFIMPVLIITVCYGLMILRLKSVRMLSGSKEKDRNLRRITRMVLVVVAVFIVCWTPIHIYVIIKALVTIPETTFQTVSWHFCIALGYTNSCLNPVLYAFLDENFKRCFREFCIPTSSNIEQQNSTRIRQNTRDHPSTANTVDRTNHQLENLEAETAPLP
Chain of Cannabinoid receptor 1 (P21554 whole entry): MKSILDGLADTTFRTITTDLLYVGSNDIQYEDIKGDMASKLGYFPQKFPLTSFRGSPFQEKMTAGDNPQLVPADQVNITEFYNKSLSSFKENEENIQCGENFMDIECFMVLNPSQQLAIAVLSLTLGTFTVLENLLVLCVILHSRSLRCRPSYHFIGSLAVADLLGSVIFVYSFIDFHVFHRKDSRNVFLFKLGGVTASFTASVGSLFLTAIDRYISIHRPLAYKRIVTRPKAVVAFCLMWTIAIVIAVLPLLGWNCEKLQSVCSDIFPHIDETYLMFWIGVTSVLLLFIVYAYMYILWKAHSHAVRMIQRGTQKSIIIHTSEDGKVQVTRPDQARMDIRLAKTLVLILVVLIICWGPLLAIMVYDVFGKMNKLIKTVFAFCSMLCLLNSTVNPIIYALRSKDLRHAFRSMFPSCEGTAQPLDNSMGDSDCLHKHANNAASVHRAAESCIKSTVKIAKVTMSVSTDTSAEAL
Chain of Beta-2 adrenergic receptor (P07550 whole entry): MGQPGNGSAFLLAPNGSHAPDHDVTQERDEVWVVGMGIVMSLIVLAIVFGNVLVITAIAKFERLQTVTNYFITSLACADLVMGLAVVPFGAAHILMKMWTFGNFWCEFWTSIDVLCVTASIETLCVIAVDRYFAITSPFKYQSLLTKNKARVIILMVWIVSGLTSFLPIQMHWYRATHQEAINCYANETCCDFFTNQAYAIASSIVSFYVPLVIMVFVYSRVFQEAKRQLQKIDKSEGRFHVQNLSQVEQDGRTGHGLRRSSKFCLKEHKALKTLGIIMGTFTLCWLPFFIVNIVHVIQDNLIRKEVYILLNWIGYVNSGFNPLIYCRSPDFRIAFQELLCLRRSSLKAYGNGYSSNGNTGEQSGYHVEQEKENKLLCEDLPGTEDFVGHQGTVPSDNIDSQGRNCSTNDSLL

With `CC(CN(C)C)C(C)(O)Cc1ccc(Cl)cc1` (stereo unspecified) [CLOBUTINOL], the AC50 (as a rule, the midpoint of the concentration-response curve, whichever way the signal moves) in [1] was above 10 µM; in experiment [2], above 10 µM; in experiment [3], above 30 µM; in experiment [4], above 10 µM; in [5] it was above 30 µM; at Cannabinoid receptor 1, above 30 µM. Also, the AC50 is above 10 µM at Histamine H1 receptor; above 10 µM in experiment [6]; above 30 µM at Melanocortin receptor 4; above 30 µM at Mu-type opioid receptor [7]; above 30 µM in experiment [8].
On to `CC(=O)c1ccc(S(=O)(=O)NC(=O)NC2CCCCC2)cc1` [ACETOHEXAMIDE], for which the AC50 in experiment [1] is above 10 µM; in experiment [2], above 10 µM; in experiment [3], above 30 µM; in experiment [4], above 10 µM; in experiment [5], above 30 µM; at Cannabinoid receptor 1 it was above 30 µM. Besides, the AC50 at Histamine H1 receptor is above 10 µM; in experiment [6] it was above 10 µM; at Melanocortin receptor 4, above 10 µM; on Mu-type opioid receptor [9], above 30 µM; at Mu-type opioid receptor [7] it was above 30 µM; in experiment [8], above 30 µM.
With `CCc1nc(N)nc(N)c1-c1ccc(Cl)cc1` [PYRIMETHAMINE], the AC50 in experiment [1] was 4 µM; in experiment [2], above 10 µM; in experiment [3] it was above 30 µM; in experiment [4], above 30 µM; in experiment [5], above 30 µM; at Cannabinoid receptor 1, above 30 µM. The AC50 is above 30 µM at Histamine H1 receptor; above 10 µM in experiment [6]; above 10 µM on Melanocortin receptor 4; above 30 µM at Mu-type opioid receptor [9]; above 30 µM on Mu-type opioid receptor [7]; above 30 µM in [8].
With `CCC(=O)O[C@](Cc1ccccc1)(c1ccccc1)[C@H](C)CN(C)C` [PROPOXYPHENE], the AC50 in [1] is 8.05 µM; in [2] it was above 10 µM; in experiment [3], above 30 µM; in [4], above 10 µM; in [5], 16 µM; at Cannabinoid receptor 1 it was above 30 µM. The AC50 on Histamine H1 receptor is above 10 µM; in [6] it was above 10 µM; at Melanocortin receptor 4 it was above 30 µM; at Mu-type opioid receptor [9] it was 0.17 µM; at Mu-type opioid receptor [7] it was 0.693 µM; in experiment [8] it was above 30 µM.
Consider `O=C1Nc2ccc(Cl)cc2C(c2ccccc2Cl)=NC1O` (stereo unspecified) [LORAZEPAM], for which the AC50 was above 10 µM in [1]; above 30 µM in experiment [3]; above 30 µM on Cannabinoid receptor 1; above 10 µM in [6]; above 30 µM at Melanocortin receptor 4; above 30 µM on Mu-type opioid receptor [7]. This compound also gave an AC50 in experiment [8] above 30 µM.
Regarding `Cc1ccnc2c1NC(=O)c1cccnc1N2C1CC1` [NEVIRAPINE], the AC50 in experiment [1] is above 10 µM; in [3] it was above 30 µM; on Cannabinoid receptor 1, above 30 µM; in experiment [6], above 10 µM; at Melanocortin receptor 4, above 30 µM; at Mu-type opioid receptor [7], above 10 µM. Further, in [8], the AC50 is above 30 µM.
On to `CCOC(=O)c1ccc(C#Cc2ccc3c(c2)C(C)(C)CCS3)nc1` [TAZAROTENE], for which the AC50 was above 10 µM in [1]; above 10 µM in experiment [2]; above 30 µM in [3]; above 10 µM in experiment [4]; above 30 µM in experiment [5]; above 10 µM on Histamine H1 receptor. Moreover, the AC50 (at Melanocortin receptor 4; at Mu-type opioid receptor [7]; in experiment [8]) was above 30 µM in each case.
On to `CCCCOc1ccc(C(=O)CCN2CCCCC2)cc1` [DYCLONINE], for which the AC50 in experiment [1] is 9.66 µM; in experiment [2] it was above 10 µM; in experiment [3], above 30 µM; in [4], above 10 µM; in [5], above 10 µM; on Cannabinoid receptor 1, above 30 µM. Moreover, the AC50 on Histamine H1 receptor was 8.5 µM; in experiment [6], above 10 µM; at Melanocortin receptor 4 it was above 30 µM; at Mu-type opioid receptor [7], above 10 µM; in experiment [8], above 30 µM.

The record behind these values is ChEMBL document CHEMBL5291721, “A preclinical secondary pharmacology resource illuminates target-adverse drug reaction associations of marketed drugs” (Nat Commun, 2023).
